Results taken from BigSolDB 2.1.

FC(F)(F)c1cccnc1Cl
solubility (mole fraction)
Conditions	273.15 K	278.15 K	283.15 K	288.15 K	293.15 K	298.15 K	303.15 K
in dichloromethane	0.281	0.365	0.41	0.469	0.551	0.625	0.741
in ethanol	0.137	0.182	0.253	0.355	0.475	0.635	0.875
in n-heptane	0.037	0.0552	0.0887	0.14	0.222	0.36	0.556
in n-hexane	0.046	0.0733	0.118	0.199	0.336	0.488	0.762
in n-propanol	0.0727	0.0992	0.132	0.183	0.253	0.355	0.492
in toluene	0.35	0.413	0.491	0.569	0.653	0.724	0.862
